Reference: US20070053883A1, “Neuronal cell lineages and methods of production thereof” (THE JOHNS HOPKINS UNIVERSITY, priority 2003, published 2007)
“Also recorded” adds a separate entry of the source.

Key:
Hh pathway [1] = assay: Shh signaling assay in NIH3T3 Shh-LIGHT Z3 cells (Gli luciferase reporter); format: cell-based
Procedure: (§1) Shh signaling assays. Shh signaling assays were carried out as described^16 in primary fibroblasts lacking functional Dhcr7, Sc5d or Ptch and in NIH3T3 fibroblasts. Dhcr7^−/− and Dhcr7^+/− MEFs were generated from embryonic day-9 mutant mice and Sc5h1 and Sc5d^−/− and Sc5d^+/− MEFs from embryonic day-14.5 mutant mice. We generated a reporter construct with firefly luciferase and Gli (pGL3-8xGli-luciferase) by cloning eight tandem Gli-binding sites and a lens crystallin promoter from the 8xGli-BS Luc construct^22 into the pGL3-Basic vector (Promega). We determined relative Hh pathway activity in Dhcr7^−/−, Dhcr7^+/−, Sc5d^+/+ and Sc5d^+/− MEFs from the expression of transiently transfected pGL3-8xGli-luciferase and control Renilla luciferase (pRL-SV40; Promega) vectors. In Ptch^−/− MEFs, we normalized β-galactosidase activity expressed under the control of the Ptch promoter for protein levels to determine relative Hh pathway activity. In the NIH3T3 cell clone Shh-LIGHT Z3, we normalized 8xGli-BS luciferase activity for β-galactosidase activity from stably transfected vectors (8xGli-BS Luc^22 and piZ-lacZ). We established clonal sublines of Shh-LIGHT Z3 by cotransfecting either Smo tagged with Myc epitope or SmoA1 with vector encoding G418 resistance (pGT; Invivogen). All transfections were done with Fugene 6. We carried out cyclodextrin treatments for 30 min with methyl-β-cyclodextrin (Sigma) dissolved in Dulbecco's modified Eagle medium, preceded and followed by two washes with phosphate-buffered saline. Fetal bovine serum was depleted of lipids as described^23. We purchased compactin as an active sodium salt form of mevastatin (Biomol) and dissolved it in dimethylsulfoxide.
(§2) The combination of transient cyclodextrin treatment followed by inhibition of cholesterol synthesis blocked the response to ShhNp, whereas neither treatment alone did so. FIG. 4c, Hh path way inhibition persisted for 72 h after cyclodextrin treatment. The 3-d recovery period was intended to allow replenishment of non-sterol cellular components depleted by transient cyclodextrin treatment while maintaining sterol depletion with HMG-CoA reductase inhibition by compactin. FIG. 4d, Total cellular sterols from parallel cultures of NIH3T3 (c, 36 h), Dhcr7^−/− and Sc5d^−/− (FIG. 3b) MEFs were determined by gas chromatography-mass spectrometry analysis of extracted lipids and plotted against the relative Shh pathway activity. Bars represent one standard error (quadruplicate wells).

Hh pathway [2] = assay: Response of cells to ShhNp protein under sterol-specific perturbations (data not shown); format: cell-based
Excerpt: Cyclodextrins form complexes with hydrophobic compounds including proteins and phospholipids in addition to sterols^6.

chick embryos = assay: Cyclodextrin treatment of chick embryos in ovo, facial features by scanning electron microscopy; format: in vivo; conditions: 375 μM cyclodextrin in ovo, applied after 15 h of incubation, early-primitive-streak stage, embryonic day 5
Procedure: (§3) Chick embryos. Methyl-β-cyclodextrin (200 μl of a 10% w/v solution in L-15 medium (Sigma and Life Technologies)) was applied to windowed, fertile chick eggs (White Leghorn) after 15 h of incubation. For an average egg volume of 50 ml, the final concentration of cyclodextrin was 375 μM. After 4 d of further incubation, we processed the embryos for scanning electron microscopy. The neural plate and epidermal ectoderm was dissected from stage 9-10 chick embryos, cultured them in collagen and induced them with purified Sonic Hh N-terminal peptide ShbN^21 as described^3. Methyl-β-cyclodextrin was added to the chick explant cultures 4 h after induction with ShhN was initiated.
To determine how cholesterol may affect Hh signaling in embryonic development, chick embryos were exposed to cyclodextrin, a cyclic oligosaccharide that forms non-covalent complexes with sterols and can be used to extract and deplete cholesterol from living cells. […] The most severely affected embryos developed a proboscis-like structure that phenocopies the nasal rudiments of mouse embryos that are homozygous with respect to mutations in the gene Sonic hedgehog (Shh; ref. 8).
FIG. 2a provides scanning electron micrographs of facial features at embryonic day 5 of a control (control) chick embryo and of embryos exposed to 375 μM cyclodextrin (CD). […]

[3] = test system: chick neural-plate explants; assay: Chick neural-plate explants induced with ShhN, stained for HNF3β or lSL1; format: cell-based
Procedure: as §3
It was further investigated whether SSH signaling in embryonic tissues by exposing chick neural-plate explants to recombinant Shh protein (ShhN, 30 nm) in the presence of cyclodextrin (FIG. 2b). FIG. 2b provides confocal microscope images of stage 9-10 chick embryo ectoderm dissected from a region of the neural plate intermediate to the notochord and roof plate and just rostral to Hensen's node. Explants were cultured for 48 h in collagen and stained for HNF3β or lSL1, as indicated.

neural-crest cells = assay: BMP-induced migration of neural-crest cells from dorsal neural plate explants; format: cell-based, chick; conditions: 400 μM cyclodextrin alone, 48 h of culture
Procedure: as §3
Dorsal neural plate progenitor cells and an endogenous source of BMP, the adjacent epidermal ectoderm, were dissected from a region just rostral to Hensen's node in stage 9-10 chick embryos.

Shh autoprocessing = assay: Analysis of Shh protein biogenesis (autoprocessing) in MEFs; format: cell-based, mouse; conditions: Dhcr7−/− or Sc5d−/− MEFs; transient (30 min, 3.8 mM) cyclodextrin treatment, lipid-depleted serum
Procedure: Analysis of Shh protein biogenesis. MEFs were plated in a 10-cm^2 dish (Falcon) and transfected them (Fugene 6, Roche) with a full length Shh expression construct (pRK5-Shh, 5 μg) when the cells were roughly 75% confluent. The next day, we changed the culture medium (Dulbecco's modified Eagle medium with 10% fetal bovine serum) to contain either 0.5% fetal bovine serum, 0.5% lipid-depleted serum or lipid-depleted serum after a 30-min treatment with 3.8 mM methyl-β-cyclodextrin (Sigma). After an additional 24 h in culture, we lysed the MEFs in RIPA buffer (50 mM Tris-C1, pH 7.5, 150 mM NaCl, 1% Nonidet P-40, 0.5% sodium deoxycholate, 1 mM EDTA, 1 μg ml^−1 leupeptin, 1 μg ml aprotinin^−1, 0.2 mM phenylmethylsulfonyl fluoride), immunoprecipitated Shh protein from the cell lysates with a monoclonal antibody that recognizes the N-terminal signaling domain (5E1, Developmental Studies Hybridoma Bank) and immunoblotted them with a polyclonal antibody preparation (JH134). […]

Hh pathway [4] = assay: Shh signaling assay in Dhcr7 and Sc5d MEFs (Hh-responsive firefly luciferase reporter); format: cell-based, mouse
Procedure: Shh signaling assays. Shh signaling assays were carried out as described^16 in primary fibroblasts lacking functional Dhcr7, Sc5d or Ptch and in NIH3T3 fibroblasts. Dhcr7^−/− and Dhcr7^+/− MEFs were generated from embryonic day-9 mutant mice and Sc5h1 and Sc5d^−/− and Sc5d^+/− MEFs from embryonic day-14.5 mutant mice. We generated a reporter construct with firefly luciferase and Gli (pGL3-8xGli-luciferase) by cloning eight tandem Gli-binding sites and a lens crystallin promoter from the 8xGli-BS Luc construct^22 into the pGL3-Basic vector (Promega). We determined relative Hh pathway activity in Dhcr7^−/−, Dhcr7^+/−, Sc5d^+/+ and Sc5d^+/− MEFs from the expression of transiently transfected pGL3-8xGli-luciferase and control Renilla luciferase (pRL-SV40; Promega) vectors. […]
The effect of cholesterol depletion on responsiveness of Dhcr7^+/− (gray bars), Dhcr7^−/− (maroon bars), Sc5d^+/− (gray bars), and Sc5d^−/− (green bars) MEFs to Shh signaling was assayed by transfection with a Hh-responsive firefly luciferase reporter and treatment with purified ShhNp (10 nM). […] For each culture condition, normalized firefly luciferase activity from control and ShhNp treated cells was used to calculate the relative induction, expressed as a percentage of the Shh induction achieved in MEFs cultured in full serum. […]

[5] = test system: Hh pathway downstream of Ptch; assay: Constitutive Hh pathway activity in Ptch−/− MEFs (β-galactosidase); format: cell-based, mouse; conditions: transient treatment with increasing concentrations of cyclodextrin in combination with compactin
Procedure: as §1, with “We carried out cyclodextrin treatments for 30 min with methyl-β-cyclodextrin (Sigma) dissolved in Dulbecco's modified Eagle medium, preceded and followed by two washes with phosphate-buffered saline. Fetal bovine serum was depleted of lipids as described^23. We purchased compactin as an active sodium salt form of mevastatin (Biomol) and dissolved it in dimethylsulfoxide.” left out

Smo = biological target: T1, Smo (Mus musculus, UniProt P56726); assay: Shh pathway activation by overexpression of wild-type Smo in NIH3T3 cells; format: cell-based; conditions: cholesterol depletion by cyclodextrin and compactin treatments
T1 construct: expressed in transfected cells
T1 sequence (P56726 33-793): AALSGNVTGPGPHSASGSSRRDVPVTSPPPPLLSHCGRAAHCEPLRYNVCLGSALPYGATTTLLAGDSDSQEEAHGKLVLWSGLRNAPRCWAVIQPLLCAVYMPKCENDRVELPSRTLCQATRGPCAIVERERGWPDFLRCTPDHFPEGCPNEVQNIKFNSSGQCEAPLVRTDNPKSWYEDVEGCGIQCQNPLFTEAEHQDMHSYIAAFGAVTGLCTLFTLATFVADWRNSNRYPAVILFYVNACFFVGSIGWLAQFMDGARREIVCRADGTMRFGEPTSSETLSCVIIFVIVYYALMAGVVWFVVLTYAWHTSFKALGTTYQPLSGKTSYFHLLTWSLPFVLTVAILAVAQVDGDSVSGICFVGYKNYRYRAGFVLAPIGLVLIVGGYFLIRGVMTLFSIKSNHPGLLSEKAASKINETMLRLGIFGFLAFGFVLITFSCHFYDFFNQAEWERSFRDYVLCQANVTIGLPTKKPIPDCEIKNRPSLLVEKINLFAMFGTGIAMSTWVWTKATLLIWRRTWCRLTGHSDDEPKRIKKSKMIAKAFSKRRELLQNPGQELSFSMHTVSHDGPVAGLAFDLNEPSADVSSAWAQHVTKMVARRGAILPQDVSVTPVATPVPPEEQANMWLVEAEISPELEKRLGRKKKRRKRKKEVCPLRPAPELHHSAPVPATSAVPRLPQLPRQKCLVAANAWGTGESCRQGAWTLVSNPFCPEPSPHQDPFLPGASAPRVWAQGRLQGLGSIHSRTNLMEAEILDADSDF
Procedure: as §1, with “We carried out cyclodextrin treatments for 30 min with methyl-β-cyclodextrin (Sigma) dissolved in Dulbecco's modified Eagle medium, preceded and followed by two washes with phosphate-buffered saline. Fetal bovine serum was depleted of lipids as described^23. We purchased compactin as an active sodium salt form of mevastatin (Biomol) and dissolved it in dimethylsulfoxide.” left out

SmoA1 = biological target: T2, SmoA1 (Mus musculus, UniProt P56726, W539L); assay: Shh pathway activity driven by oncogenic Smo (SmoA1, W539L) in NIH3T3 cells; format: cell-based; conditions: cholesterol depletion by cyclodextrin and compactin treatments
T2 construct: expressed in transfected cells
T2 sequence (P56726 33-793 W539L): as the sequence (P56726 33-793) above, with W507L counted along it
Procedure: as §1, with “We carried out cyclodextrin treatments for 30 min with methyl-β-cyclodextrin (Sigma) dissolved in Dulbecco's modified Eagle medium, preceded and followed by two washes with phosphate-buffered saline. Fetal bovine serum was depleted of lipids as described^23. We purchased compactin as an active sodium salt form of mevastatin (Biomol) and dissolved it in dimethylsulfoxide.” left out

[6] = test system: Dhcr7−/− and Sc5d−/− MEFs; assay: Sterol analysis of MEFs cultured in parallel with signaling assays; format: cell-based, mouse; conditions: lipid-depleted serum
Procedure: Sterol analysis. Neutral sterols were extracted and analyzed as described^24 from replicate wells of MEFs cultured in parallel with those used for signaling assays.
as §2

[7] = 400 μM cyclodextrin, 30 nM ShhN, 48 h

Compound: CC[C@H](C)C(=O)O[C@H]1CCC=C2C=C[C@H](C)[C@H](CC[C@@H]3C[C@@H](O)CC(=O)O3)[C@H]21 [compactin]
- ShhNp response under compactin alone (Hh pathway [1]; continuous exposure to compactin): not affected

Compound: C[C@@H]1[C@H](O)[C@@H](C)/C=C/C=C/CC/C=C/C=C/C=C/C=C/C(O[C@H]2O[C@H](C)[C@@H](O)[C@H](N)[C@@H]2O)CC2O[C@](O)(CC(O)C(O)CCC(O)CC(O)CC(O)CC(=O)O[C@H]1C)CC(O)C2C(=O)O (stereo partly shown) [nystatin]
- response of cells to ShhNp protein (Hh pathway [2]): blocked

Compound: CCCCC[C@@H](O)[C@H]1C(=O)O[C@H](C)[C@@H](O)/C=C/C=C/C=C/C=C/C=C(\C)[C@@H](O)C[C@H](O)C[C@H](O)C[C@H](O)C[C@H](O)C[C@H](O)C[C@@H]1O [filipin]
- response of cells to ShhNp protein (Hh pathway [2]): blocked

Compound: Methyl-β-cyclodextrin
- developmental malformation of facial and midline structures (chick embryos): variable loss of midline tissues
- developmental malformation of facial and midline structures (chick embryos; listed as Cyclodextrin): variable loss of the frontonasal process and other midline structures; also recorded: holoprosencephaly
- HNF3β and lSL1 marker expression ([3]; 200 μM cyclodextrin, 30 nM ShhN, 48 h): both HNF3μ and lSL1 were expressed
- high-threshold response to ShhN (HNF3β) [3, 7]: blocked
- lSL1 expression (intermediate-threshold response, motor-neuron fate) [3, 7]: substantially uniform expression of lSL1
- differentiation of neural plate explant cells as motor neurons ([3]; 400 μM β-methyl CD in conjunction with 30 nM ShhN): all cells
- cellular response to Shh protein (FIG. 2b) ([3]; cyclodextrin treatment, concentration not given in legend): inhibited the cellular response to Shh protein
- BMP-induced migration of neural-crest cells (neural-crest cells): did not inhibit
- Shh autoprocessing (Shh autoprocessing): no observable effect
- ability to respond to Shh signal (Hh pathway [4]; Dhcr7 and Sc5d mutant MEFs, transient 30-min cyclodextrin, lipid-depleted medium, ShhNp 10 nM): clear deficiencies in their ability to respond to Shh signal
- response to ShhNp stimulation (Hh pathway [4]; cells heterozygous for Dhcr7 and Sc5d mutations, all growth conditions incl. transient cyclodextrin): normal response
- inhibition of Shh signal response (Hh pathway [1]; continuous treatment with 500 μM cyclodextrin): about 50%
- inhibition of Shh signal response (Hh pathway [1]; continuous treatment with 2 mM cyclodextrin): nearly complete inhibition
- response to Shh signaling under chronic cyclodextrin (Hh pathway [1]; cyclodextrin in culture medium for the duration of ShhNp induction, comparable to 5 μM cyclopamine): dose dependent manner; also recorded: inhibited
- Shh signal response, transient cyclodextrin combined with continuous compactin (Hh pathway [1]; transient cyclodextrin before ShhNp induction, then compactin during induction): blocked; also recorded: inhibited
- persistence of Hh pathway inhibition after cyclodextrin treatment (Hh pathway [1]; transient cyclodextrin, sterol depletion maintained with compactin): 72 h
- ShhNp response after transient cyclodextrin alone (Hh pathway [1]; transient treatment for 30 minutes before ShhNp, even at 15 mM cyclodextrin): did not affect response
- constitutive Hh pathway activity in Ptch−/− fibroblasts [5]: dose-dependent reduction
- constitutive Hh pathway activity in Ptch−/− fibroblasts ([5]; listed as Cyclodextrin): blocked
- Shh pathway activation by overexpressed wild-type Smo (Smo): inhibited
- Shh pathway activity driven by SmoA1 (SmoA1): resistant to inhibition
- sterol levels after initial transient cyclodextrin treatment, needed to affect pathway response [6]: below 40 μg mg^−1 protein
